Measured values published in ChEMBL document CHEMBL1201862, “PubChem BioAssay data set” (2004).
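Cultured in 96-well plates, cells were exposed to test compound for 48 hours across five concentrations. GI50 = concentration required for 50% inhibition of growth.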 The source made the active and inactive calls. Rule as the data show it: active = GI50 up to about 1.1 µM and inactive = higher.

Assays:
Test in all cases: inhibition of tumour cell growth, NCI panel, 48 h
NCI-H522 = tested on: NCI-H522
HL-60 = tested on: HL-60
HT-29 = tested on: HT-29
EKVX = tested on: EKVX
SF-268 = tested on: SF-268
RXF 393 = tested on: RXF 393
A549 = tested on: A549
COLO 205 = tested on: COLO 205
OVCAR-5 = tested on: OVCAR-5
HOP-62 = tested on: HOP-62
UACC-257 = tested on: UACC-257
HCT-116 = tested on: HCT-116
HCT-15 = tested on: HCT-15
MDA-N = tested on: MDA-N
Hs-578T = tested on: Hs-578T
BT-549 = tested on: BT-549
A498 = tested on: A498
UACC-62 = tested on: UACC-62
PC-3 = tested on: PC-3

Measured: GI50

COC(=O)[C@@H]1[C@H]2CC[C@]3(C)[C@@H](OC(C)=O)CC[C@H]3[C@@H]2CC[C@H]1C(C)=O
inactive: NCI-H522 > 100 µM | HL-60 > 100 µM | HT-29 > 100 µM | EKVX > 100 µM | SF-268 > 100 µM | RXF 393 > 100 µM | A549 > 100 µM | COLO 205 > 100 µM | OVCAR-5 > 100 µM | HOP-62 > 100 µM | UACC-257 > 100 µM | HCT-116 > 100 µM | MDA-N > 100 µM | Hs-578T > 100 µM | BT-549 > 100 µM | A498 > 100 µM | UACC-62 > 100 µM | PC-3 > 100 µM
> 100 µM: HCT-15

CC1=C2NCN(C)N=C2C(C#N)(C#N)C1(C#N)C#N
inactive: NCI-H522 8.87 µM | HL-60 1.93 µM | HT-29 21.4 µM | EKVX 26 µM | SF-268 32.2 µM | RXF 393 19.1 µM | A549 > 78.5 µM | COLO 205 5 µM | OVCAR-5 33.5 µM | HOP-62 > 55.2 µM | UACC-257 17 µM | HCT-116 23.1 µM | MDA-N 15.6 µM | Hs-578T 32.6 µM | BT-549 21.6 µM | A498 41.3 µM | UACC-62 20.8 µM | PC-3 26.9 µM
21 µM: HCT-15

CC(C)OC(=O)C1=C2c3ncccc3C(=O)N2[C@@H](Cl)[C@H](Cl)[C@H]1Cl
70.3 µM: HCT-15
inactive: NCI-H522 26.2 µM | HL-60 38.2 µM | HT-29 > 100 µM | EKVX > 100 µM | SF-268 47.9 µM | RXF 393 > 100 µM | A549 > 100 µM | COLO 205 44 µM | OVCAR-5 > 100 µM | HOP-62 > 100 µM | UACC-257 34 µM | HCT-116 50.6 µM | MDA-N 50.9 µM | Hs-578T > 100 µM | BT-549 36.9 µM | A498 > 100 µM | UACC-62 > 100 µM | PC-3 56.6 µM

Cc1ccccc1C(=N)c1ccccc1Cc1cccc2ccccc12
inactive: NCI-H522 13.1 µM | HL-60 18.1 µM | HT-29 16.1 µM | EKVX 29.4 µM | SF-268 20.6 µM | RXF 393 5.93 µM | A549 25.1 µM | COLO 205 27.6 µM | OVCAR-5 37.5 µM | HOP-62 19 µM | UACC-257 25.6 µM | HCT-116 11.9 µM | MDA-N 22.2 µM | Hs-578T 4.63 µM | BT-549 33.2 µM | A498 30.8 µM | UACC-62 15.1 µM | PC-3 40.6 µM
18.7 µM: HCT-15

CCOC(=O)/C=C(/C)Nc1nc2c(c(C(=O)OC)c1C#N)CCCC2
inactive: NCI-H522 > 100 µM | HL-60 69.3 µM | HT-29 > 100 µM | EKVX 86.1 µM | SF-268 > 100 µM | RXF 393 > 100 µM | A549 > 100 µM | COLO 205 > 100 µM | OVCAR-5 > 100 µM | HOP-62 > 100 µM | UACC-257 > 100 µM | HCT-116 > 100 µM | MDA-N > 100 µM | Hs-578T > 100 µM | BT-549 > 100 µM | A498 > 100 µM | UACC-62 > 100 µM | PC-3 > 100 µM
> 100 µM: HCT-15

COC1(OC)N=C(N)C2(C#N)C(c3ccccc3)NC3=C(CCC3)C12C#N (centres undefined)
> 100 µM: HCT-15
inactive: NCI-H522 > 100 µM | HL-60 > 100 µM | HT-29 > 100 µM | EKVX > 100 µM | SF-268 > 100 µM | RXF 393 > 100 µM | A549 > 100 µM | COLO 205 > 100 µM | OVCAR-5 > 100 µM | HOP-62 > 100 µM | UACC-257 > 100 µM | HCT-116 > 100 µM | MDA-N > 100 µM | Hs-578T > 100 µM | BT-549 > 100 µM | A498 > 100 µM | UACC-62 > 100 µM | PC-3 > 100 µM

COc1c2c(c3c(c1CCC(=O)O)OC(C)(C)C=C3)OC(C)(C)C=C2
inactive: NCI-H522 55.1 µM | HL-60 50.8 µM | HT-29 > 100 µM | EKVX 74.3 µM | SF-268 > 100 µM | RXF 393 > 100 µM | A549 54.5 µM | COLO 205 > 100 µM | OVCAR-5 > 100 µM | HOP-62 > 100 µM | UACC-257 > 100 µM | HCT-116 94.8 µM | MDA-N 31.4 µM | Hs-578T 83.8 µM | BT-549 > 100 µM | A498 > 100 µM | UACC-62 > 100 µM | PC-3 > 100 µM
> 100 µM: HCT-15

CNC1NC(=O)c2ccccc2N1Cc1ccc(F)cc1 (centres undefined)
inactive: NCI-H522 > 100 µM | HL-60 > 100 µM | HT-29 > 100 µM | EKVX > 100 µM | SF-268 > 100 µM | RXF 393 > 100 µM | A549 > 100 µM | COLO 205 > 100 µM | OVCAR-5 > 100 µM | HOP-62 > 100 µM | UACC-257 > 100 µM | HCT-116 > 100 µM | MDA-N > 100 µM | Hs-578T > 100 µM | BT-549 > 100 µM | A498 > 100 µM | UACC-62 > 100 µM | PC-3 > 100 µM
> 100 µM: HCT-15

CCOc1cc(NC(C)=O)ccc1C(=O)NN1C(=O)CSC1c1ccccc1 (centres undefined)
60.3 µM: HCT-15
inactive: NCI-H522 43.2 µM | HL-60 33.5 µM | HT-29 > 100 µM | EKVX 91 µM | SF-268 > 100 µM | RXF 393 74.6 µM | A549 77.3 µM | COLO 205 75 µM | OVCAR-5 > 100 µM | HOP-62 > 100 µM | UACC-257 63.8 µM | HCT-116 > 100 µM | MDA-N 84.9 µM | Hs-578T > 100 µM | BT-549 34.9 µM | A498 > 100 µM | UACC-62 52 µM | PC-3 78.7 µM

C=C[C@H]1CN2CCc3c([nH]c4c([C@H]5CCCN5C)c(O)ccc34)[C@@H]2C[C@@H]1C[C@H]1c2[nH]c3ccccc3c2CCN1C [STRYCHNOPENTAMINE]
0.899 µM: HCT-15
active: HL-60 0.267 µM | RXF 393 1.04 µM
inactive: NCI-H522 1.79 µM | HT-29 1.3 µM | EKVX 1.75 µM | SF-268 1.58 µM | A549 1.55 µM | COLO 205 1.5 µM | OVCAR-5 1.72 µM | HOP-62 1.55 µM | UACC-257 1.83 µM | HCT-116 1.33 µM | MDA-N 1.35 µM | Hs-578T 1.78 µM | BT-549 1.94 µM | A498 1.63 µM | UACC-62 1.77 µM | PC-3 1.57 µM

CC(C)CCOC(=O)NC(Nc1ccc(F)cc1)(C(F)(F)F)C(F)(F)F
active: UACC-62 0.279 µM
inactive: NCI-H522 25.8 µM | HL-60 12.9 µM | HT-29 39.8 µM | EKVX 60.7 µM | SF-268 34.1 µM | RXF 393 > 100 µM | A549 23.1 µM | COLO 205 18.3 µM | OVCAR-5 97.3 µM | HOP-62 37.2 µM | UACC-257 > 100 µM | HCT-116 65.9 µM | MDA-N 2.81 µM | Hs-578T > 100 µM | BT-549 9.75 µM | A498 42.9 µM | PC-3 28.1 µM
1.68 µM: HCT-15
